One assay concerns CFPAC cells. Kind of assay: MTT cytotoxicity assay, CFPAC. The class given is cell-based. The following applies: Homo sapiens, 48 h, mean ± SD. The method, then: Human umbilical vein endothelial cells (purchased from Life Technologies, Carlsbad, CA, USA) were cultured according to the manufacturer’s instructions in Medium 200 supplemented with Low Serum Growth Supplement. 1 × 10^4 cells were seeded on each well on a 96-well plate (Nunc, Roskilde, Denmark). The HeLa (human cervix carcinoma, cat. #93021013), CFPAC (human pancreatic adenocarcinoma, cat. #91112501), K562 (chronic myelogenous leukemia, cat. #89121407), HL-60 (acute myelogenous leukemia, cat. #98070106), and MOLT-4 (Human acute T lymphoblastic leukemia, cat. #85011413) cells were purchased from European Collection of Authenticated Cell Cultures (ECACC). They were cultured in an RPMI 1640 medium supplemented with antibiotics (streptomycin, penicillin) and 10% fetal calf serum (20% for HL60), in a 5% CO2-95% air atmosphere. 7 × 10^3 cells were seeded on each well on a 96-well plate (Nunc). 24 hours later the cells were exposed to the test compounds. The aliquots of stock solutions of the test compounds (freshly prepared in DMSO) were added to the cell cultures to yield final concentrations of 1, 10^−1, 10^−2, 10^−3, 10^−4, and 10^−5 mM. The concentration of DMSO in the cell culture medium was 1%. The IC50 value (the concentration of a test compound required to reduce the cell survival fraction to 50% of the control) was calculated from a dose-response curve and used as a measure of cellular sensitivity to a given treatment. The IC50 values are given as means (± standard deviation (SD)) from 2 independent experiments with 4 technical replicates. The cytotoxicity of all compounds was determined by the MTT (3-(4,5-dimethylthiazol-2-yl)-2,5-diphenyltetrazolium bromide) assay (Sigma, St. Louis, MO, USA). Briefly, after 24 h or 48 h of incubation with a given compound, the cells were treated with the MTT reagent and incubation was continued for 2 h. MTT-formazan crystals were dissolved in 20% SDS and 50% DMF at pH 4.7 and VIS light absorption was measured at 570 and 650 nm on a microplate reader FLUOstar Omega (BMG Labtech, Offenburg, Germany). As a control (100% viability), cells grown in the presence of 1% DMSO were used.
Background: Tetrazolium dyes change colour on reduction, which living cells bring about.

The next assay deals with caspase 3 and 7. Kind of assay: Caspase-3/7 activity (Apo-ONE fluorescent assay) in MOLT-4 cells. The class given is cell-based, human. The following applies: 5× IC50, 18 h, normalized to 1% DMSO. The method, then: Louis, MO). The induction of cell apoptosis was analyzed by Apo-ONE® Homogeneous Caspase-3/7 Assay (Promega, Madison, WI, USA). […] The fluorescence in each well was measured in triplicate (excitation at 485 nm, emission measured at 520 nm) using a microplate reader FLUOStar Omega (BMG-Labtech, Offenburg, Germany). For normalization of the data, the caspase activity in the control cells (exposed to 1% DMSO) was taken as 1.0. […] Luminescence was measured (in triplicate) using a microplate reader FLUOStar Omega. For normalization of the data, the caspase activity in the control cells (exposed to 1% DMSO) was taken as 1.0.

Another assay concerns MOLT-4 cells. Kind of assay: Annexin V/PI flow cytometry of apoptosis, MOLT-4. Format: cell-based, human. The following applies: MOLT-4, 3 h, 5× IC50 (3 45 µM, 6 20 µM, 5 100 µM). On the procedure: The phosphatidylserine on the extracellular side of cell membranes was quantified using an FITC Annexin V Apoptosis Detection Kit I (BD Pharmingen, San Diego, CA, USA) according to the manufacturer’s instruction. 10^6 cells were seeded on a 6-well plate (Nunc). […] The control cells were exposed to 1% DMSO or 1μM staurosporine. After treatment the cells were centrifuged at 700 rpm (120× g) for 5 min, washed twice with cold PBS and then resuspended in 1x binding buffer to a density of 10^6 cells/ml. 100 µL of the resuspended cells was stained in the dark with 5 μl of Annexin V-fluoroscein isothiocyanate (FITC) solution and 10 µL propidium iodide (PI) solution for 15 min at room temperature. The samples were then diluted with 400 μL of a binding buffer and within 1 h analyzed with a flow cytometer (BD FACSCalibur^TM, BD Biosciences, San Jose, CA, USA). After treatment, four populations of cells were assessed: (1) viable (neither apoptotic nor necrotic, Annexin V-FITC and PI negative), (2) apoptotic (Annexin V-FITC positive and PI negative), (3) late apoptotic (Annexin V-FITC and PI positive), and (4) necrotic (Annexin V-FITC negative and PI positive).

The subject of another assay is HeLa cells. The settings on record: 48 h, MTT, mean ± SD; cited from earlier work.
For a further assay, the system named is K562 cells. The settings on record: 48 h, MTT, mean ± SD; cited from earlier work.
The test system of assay [1] is HUVEC (human umbilical vein endothelial cells). The settings on record: 48 h, MTT, mean ± SD; cited from earlier work.

SMILES strings stand for the structures. Some results are limits rather than exact numbers.

On to `CCC12C(=O)C(CC)(C(c3ccccc3)=C1c1ccccc1)C1C(=O)N(CCN3CCCCC3)C(=O)C12` (stereo not drawn) [Compound 3], for which the IC50 in the assay on CFPAC cells was over 1000 µM; in the assay on HeLa cells, over 100 µM; in the assay with K562 cells, 2 ± 0.31 µM; in assay [1] it was over 100 µM. Further, the “activation of caspase 3/7” value in the assay with caspase 3 and 7 is recorded as “strong activation”. Besides, the apoptotic cells result in the assay with MOLT-4 cells is reported as “about 76%”.
Regarding `CCC12C(=O)C(CC)(C(c3ccccc3)=C1c1ccccc1)C1C(=O)N(CC(O)CNC(C)C)C(=O)C12` (stereo not drawn) [Compound 5], the IC50 in the assay with CFPAC cells was over 1000 µM; in the assay with HeLa cells it was over 100 µM; with K562 cells it was 1 ± 0.05 µM; in assay [1], over 100 µM. For the same compound, the “activation of caspase 3/7” value with caspase 3 and 7 is reported as “strong activation”. Also, the apoptotic cells in the assay with MOLT-4 cells is reported as about 78%.
On to `CN(C)CCN1C(=O)C2C(C1=O)C1(c3ccccc3)CC2(c2ccccc2)C(c2ccccc2)=C1c1ccccc1` (stereo not drawn) [Compound 6], for which the IC50 with CFPAC cells was 40 ± 3.1 µM; in the assay on HeLa cells, 1 ± 0.2 µM; in the assay with K562 cells, 1 ± 0.3 µM; in assay [1] it was over 100 µM. In the assay on caspase 3 and 7, the “activation of caspase 3/7” value is recorded as “strong activation”. The same compound had an apoptotic cells with MOLT-4 cells of about 99%.

In general, IC50 refers to the midpoint of a concentration-inhibition curve.

(Values after paper PMC6770581, “New Thalidomide-Resembling Dicarboximides Target ABC50 Protein and Show Antileukemic and Immunomodulatory Activities” (Biomolecules, 2019).)
